From patent US12599559B2, “CD1d-ligand-compound-containing liposome preparation having improved pharmacokinetics” (REGiMMUNE Corporation, priority 2020, dated 2026)
Where two headings read alike, the source gives them in different places.

Assay: pharmacokinetics in human clinical trials, plasma KRN7000 by LC-MS/MS
Assay type: in vivo
Details: patients; for Cmax / AUC(0-t): plasma, iv
Procedure: In a phase I clinical trial, RGI-2001-001 was administered intravenously at a dose of 100 μg/kg as KRN7000 within 30 minutes after transplantation to six patients who had received hematopoietic stem cell transplantation. 2 mL of peripheral blood was collected before and 0.5, 1, 2, 4, 6, 8, 24, 48, 72, and 96 hours after transplantation, respectively, and plasma components were collected. KRN7000 in each plasma was separated and identified by liquid chromatography-mass spectrometry (LC-MS/MS).
Similarly, RGI-2001-003 was administered intravenously at a dose of 100 μg/kg as KRN7000 within 30 minutes after transplantation to seven patients who had received hematopoietic stem cell transplantation, and 2 mL of peripheral blood was collected before and 0.5, 2, 4, 6, 8, 24, and 48 hours after transplantation. Plasma components were collected, and plasma KRN7000 was separated and identified by LC-MS/M. These patients were treated with RGI-2001-003 at a dose of 100 μg/kg as KRN7000 intravenously once a week for 5 to 6 consecutive doses. For the administration on day 14, 2 mL of peripheral blood was collected before and 0.5 and 4 hours after administration, respectively, plasma components were collected, and plasma KRZN7000 was separated and identified by LC-MS/M. The NKT response and the number of activated Tregs (Ki-67+%) in patients treated with RGI-2001-003 administration were monitored over time.

[1] = 100 ug/kg, plasma KRN7000 after RGI-2001-003 iv 100 μg/kg weekly, Day 0

- concentration at 14 day (100 μg/kg as KRN7000, plasma KRN7000 after RGI-2001-003 iv 100 μg/kg weekly, Day 14, read-out: Cmin): 34.1 ng/mL
- half-life [1]: 35.8 h
- AUC(0-inf) (100 ug/kg, plasma KRN7000 after RGI-2001-003 iv 100 μg/kg weekly, Day 0, read-out: *Est. AUC0-inf): 42500 ng·h/mL
- Cmax [1]: 881 ng/mL
- AUC(0-t) (100 ug/kg, plasma KRN7000 after RGI-2001-003 iv 100 μg/kg weekly, Day 0, read-out: AUC0-4): 3000 ng·h/mL
- Cmax (100 ug/kg, plasma KRN7000 after RGI-2001-003 iv 100 μg/kg weekly, Day 14): 570 ng/mL
- AUC(0-t) (100 ug/kg, plasma KRN7000 after RGI-2001-003 iv 100 μg/kg weekly, Day 14, read-out: AUC0-4): 1890 ng·h/mL
SMILES: CCCCCCCCCCCCCCCCCCCCCCCCCC(=O)N[C@@H](CO[C@H]1OC(CO)[C@H](O)C(O)C1O)[C@H](O)[C@H](O)CCCCCCCCCCCCCC (stereo partly drawn) [KRN7000, (2S,3S,4R)-1-o-(α-D-galactopyranosyl)-2-(N-hexacosanoylamino)-1,3,4-octadecanetriol]
